Source: ChEMBL document CHEMBL1129904, “3-chloro-4-carboxamido-6-arylpyridazines as a non-peptide class of interleukin-1 converting enzyme inhibitor” (Bioorg Med Chem Lett, 1997)

Columns and labels:
Caspase-1 = molecular target: T1, Caspase-1 (Homo sapiens, UniProt P29466); test: Antiinflammatory activity measured as the concentration required to inhibit IL-1 beta converting enzyme
T1 sequence (P29466 whole entry): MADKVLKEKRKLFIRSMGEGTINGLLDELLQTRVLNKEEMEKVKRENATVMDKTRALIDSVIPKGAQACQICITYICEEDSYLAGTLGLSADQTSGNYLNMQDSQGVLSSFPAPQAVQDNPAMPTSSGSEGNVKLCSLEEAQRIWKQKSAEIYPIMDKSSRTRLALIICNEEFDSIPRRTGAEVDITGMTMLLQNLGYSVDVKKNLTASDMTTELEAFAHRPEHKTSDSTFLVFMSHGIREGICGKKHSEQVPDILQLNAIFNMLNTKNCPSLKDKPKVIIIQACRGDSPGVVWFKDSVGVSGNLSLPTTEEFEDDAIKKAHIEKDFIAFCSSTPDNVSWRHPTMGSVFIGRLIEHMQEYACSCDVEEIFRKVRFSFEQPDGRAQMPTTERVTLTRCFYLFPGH

Caspase-1 (Homo sapiens) = molecular target: T2, Caspase-1 (Homo sapiens) (UniProt P29466); test: Inactivation of IL-1 beta converting enzyme
T2 sequence (whole entry): T1 sequence (P29466 whole entry)

| Structure (SMILES) | IC50 (Caspase-1) | k obs / 1 (Caspase-1 (Homo sapiens)) |
| --- | --- | --- |
| CSc1nnc(-c2ccncc2)cc1C(N)=O | > 250 µM | – |
| NC(=O)c1cnnc(-c2ccncc2)c1 | > 250 µM | – |
| NC(=O)c1cc(-c2ccccc2)nnc1Cl | 57 µM | < 5 M⁻¹ s⁻¹ |
| NC(=O)c1cc(-c2ccc(NS(=O)(=O)c3ccccc3)cc2)nnc1Cl | 18 µM | – |
| CNC(=O)c1cc(-c2ccncc2)nnc1Cl | 10 µM | 25 M⁻¹ s⁻¹ |
| NC(=O)c1cc(-c2ccncc2)nnc1Cl | 3 µM | 70 M⁻¹ s⁻¹ |
| O=C(NCc1ccc(Cl)cc1Cl)c1cc(-c2ccncc2)nnc1Cl | 2 µM | 140 M⁻¹ s⁻¹ |
| CNC(=O)c1cc(Cl)nnc1Cl | > 250 µM | – |
| N#Cc1cc(-c2ccncc2)nnc1Cl | 110 µM | – |
| NC(=O)c1cc(-c2ccncc2)cnc1Cl | > 250 µM | – |
| N#Cc1ccc(-c2cc(C(N)=O)c(Cl)nn2)cc1Cl | 0.5 µM | 225 M⁻¹ s⁻¹ |
| CCOC(=O)CNC(=O)c1cc(-c2ccncc2)nnc1Cl | 2 µM | – |
| CCOC(=O)c1cc(-c2ccncc2)nnc1Cl | 13 µM | 10 M⁻¹ s⁻¹ |
| COc1nnc(-c2ccncc2)cc1C(N)=O | > 250 µM | – |
| O=C(NCc1ccccc1)c1cc(-c2ccncc2)nnc1Cl | 4 µM | 50 M⁻¹ s⁻¹ |
| CN(C)C(=O)c1cc(-c2ccncc2)nnc1Cl | > 250 µM | – |

Results, then the compound that gave them:

| IC50 (Caspase-1) | k obs / 1 (Caspase-1 (Homo sapiens)) | Structure (SMILES) |
| --- | --- | --- |
| 1.5 µM | – | N#Cc1ccc(-c2cc(C(N)=O)c(Cl)nn2)cc1 |
| 66 µM | < 5 M⁻¹ s⁻¹ | COc1ccc(-c2cc(C(N)=O)c(Cl)nn2)cc1 |
| 0.7 µM | – | NC(=O)c1cc(-c2ccc([N+](=O)[O-])cc2)nnc1Cl |
| 5 µM | – | NC(=O)c1cc(-c2ccc(Cl)cc2)nnc1Cl |
| 5 µM | – | NC(=O)c1cc(-c2ccc(Br)cc2)nnc1Cl |
| > 250 µM | – | Cc1c(-c2ccc(Cl)cc2)nnc(Cl)c1C(N)=O |
| 5 µM | 40 M⁻¹ s⁻¹ | NC(=O)c1cc(-c2ccc(C(F)(F)F)cc2)nnc1Cl |
| 5.5 µM | 45 M⁻¹ s⁻¹ | NC(=O)c1cc(-c2ccc(F)c(Cl)c2)nnc1Cl |
| 0.3 µM | 355 M⁻¹ s⁻¹ | CS(=O)(=O)c1c(F)cc(-c2cc(C(N)=O)c(Cl)nn2)cc1F |
